Experiments:
Assay type in all cases: in vivo, rat
TNF-α = assay: Gastric mucosal concentration of TNF-α after aspirin (ELISA); conditions: rats, gastric mucosa, 3 h after aspirin
Procedure: (§1) One hundred milligrams of scraped mucosa was homogenized for 30 sec with a polytron homogenizer (PT 1200, KInematica AG, Littau, Switzerland) in 1.0 ml of ice-cold potassium phosphate buffer (pH 7.4). Following centrifugation at 10,000 g for 10 minutes, aliquots of homogenate supernatants in PBS were obtained by centrifugation (10,000 g for 10 minutes). The total protein was measured by Bradford's method. The concentration of TNF-α and IL-1β in the supernatant of mucosal homogenates was determined by ELISA (R&D systems Inc., Minneapolis, Minn., USA) according to the manufacture's instruction. After color development, optimal density was measured with microplate reader. The concentration of TNF-α and IL-1β were expressed as pictogram/mg protein.

myeloperoxidase (MPO) = assay: Myeloperoxidase (MPO) concentration in the gastric mucosa after aspirin; conditions: rats, 3 h after aspirin, normal 2.8±0.2, vehicle 13.8±1.2, P<0.001
Procedure: An assay of gastric mucosal myeloperoxidase concentration was applied to quantify the degree of neutrophil infiltration. Three hundred milligrams of scraped mucosa was homogenized for 30 sec with a polytron homogenizer (PT 1200, KInematica AG, Littau, Switzerland) in 1.0 ml of ice-cold 0.5% hexadecyliltrimethylammonium bromide in 50 mM phosphate buffer (pH 6.0). Hexadecyliltrimethylammonium bromide is used to negate the pseudoperoxidase activity of hemoglobin and to solubilize membrane-bound MPO. The homogenate was sonicated (U50 IKA Werke Grm1H and Co. KG, Staufen, Germany) for 10 seconds, freeze-thawed three times and centrifuged for 20 minutes at 18,000 g. The supernatant was taken for determination of the enzyme activity utilizing an ELISA kit (Bioxytech, Oxis International, Inc. Portland, Oreg., USA). The change in absorbance at 405 nm was measured with a spectrophotometer (Microplate reader model 3550, Bio-Rad, Hercules, Calif., USA). The concentration of myeloperoxidase was expressed as nanogram per mg protein measured using Bradford's method.

gastric acid secretion = assay: Gastric secretion, pylorus-ligation method; conditions: rats, 5 μg/kg i.p., 3 h
Procedure: Gastric juice was collected using the pylorus-ligation method. Briefly, rats were fasted for 24 hours, placed in restraint cages, and injected intraperitoneal with 5 μg/kg of ATL-146e. Thirty minutes after injection, pylorus ligation was performed. The stomach was removed 3 hours after pylorus ligation, and the gastric contents were collected. Following centrifugation the acid content of the supernatant was determined by titration with 0.01 mol NaOH to pH 7.0 using pH meter (f50 pH Meter; Beckman, Tokyo, Japan), and used to calculate gastric acid secretion in mEq/3 h.

IL-1β = assay: Gastric mucosal concentration of IL-1β after aspirin (ELISA); conditions: rats, gastric mucosa, 3 h after aspirin
Procedure: as §1

PGE2 = assay: Mucosal content of PGE2 (radioimmunoassay)
Procedure: A part of fundic mucosa (about 100 mg) was excised for determination of PGE2 synthesis. The samples were weighed, finely minced with scissors for 15 sec, then suspended in 1.0 ml of 10 mM sodium phosphate buffer (pH 7.4). The samples were then incubated in a shaking bath (37°) for 29 min followed by centrifugation (9000 g for 30 sec). The supernatant was frozen and subsequent determination of PGE2 was performed by radioimmunoassay using PGE2 [125I] RIA kit (Dupont/NEN, Boston, Mass., USA).

[1] = test system: Aspirin-induced gastric injury; assay: Aspirin-induced gastric mucosal injury model (ulcer index); conditions: rats, 3 h after aspirin, control 29.8±7.7
Procedure: Male Sprague-Dawley rats weighting 250-300 g were fed a standard laboratory diet and water ad libitum, and kept in cages in a temperature and humidity controlled room with a 12 hour dark-light cycle before and during the experiment. Prior to administration of aspirin, animals were deprived of food for 24 hours but had free access to water. This experimental protocol was approved by the Akita University Animal Care Committee. Aspirin-induced gastric injury was produced by intragastric administration of aspirin (200 mg/kg) and HCl (0.15 N, 8 ml/kg). ATL-146e (2.5 or 5 μg/kg, n=5 in each dose) or vehicle was injected intraperitoneally 30 minutes prior to aspirin administration. The animals were sacrificed by stunning and cervical dislocation 3 hours after aspirin administration and the stomach was removed. Gastric mucosal lesions were measured by two independent observers blinded to the treatment. The ulcer index was calculated as the sum of the lengths of all lesions.

Compound | reduction of the increase in TNF-α above control levels caused by aspirin (TNF-α; 2.5 μg/kg) [%] | reduction of the increase in TNF-α above control levels caused by aspirin (TNF-α; 5 μg/kg) [%] | MPO concentration in the gastric mucosa (myeloperoxidase (MPO); 2.5 μg/kg pretreatment) [μg/g protein] | MPO concentration in the gastric mucosa (myeloperoxidase (MPO); 5 μg/kg pretreatment) [μg/g protein] | increase in gastric acid output (gastric acid secretion; P<0.05) | gastric acid output (gastric acid secretion; without compound 114, P<0.05) [mmolq/3 h] | reduction of the increase in IL1-β above control levels caused by aspirin (IL-1β; 2.5 μg/kg) [%] | reduction of the increase in IL1-β above control levels caused by aspirin (IL-1β; 5 μg/kg) [%] | effect on the reduction of gastric PGE2 concentration induced by aspirin (PGE2; rats, 5 μg/kg before aspirin 200 mg/kg, P>0.05 vs. aspirin alone) | ulcer index (total length of gastric erosions) ([1]; 2.5 μg/kg i.p. 30 min before aspirin 200 mg/kg + HCl, P<0.05) [mm] | ulcer index (total length of gastric erosions) ([1]; 5.0 μg/kg i.p. 30 min before aspirin 200 mg/kg + HCl, P<0.01) [mm] | reduction of PGE2 concentration vs vehicle-treated rats (PGE2; aspirin 200 mg/kg alone, P<0.05) [%] | concentration of PGE2 in gastric mucosa (PGE2; rats, aspirin 200 mg/kg alone (group C), vehicle-treated 255.3±64.7) [ng/g]
CCNC(=O)C1OC(n2cnc3c(N)nc(C#CCC4CCC(C(=O)OC)CC4)nc32)C(O)C1O (stereo not shown) [ATL-146e, 4-{3-[6-Amino-9-(5-ethylcarbamoyl-3,4-dihydroxy-tetrahydro-furan-2-yl)-9H-purin-2-yl]-prop-2-ynyl}-cyclohexanecarboxylic acid methyl ester] | 90.3 | 99.7 | 2.9±0.35 | 2.7±0.14 | threefold | 326 | 64.0 | 97.2 | did not interfere with the reduction of gastric PGE2 concentration induced by aspirin | 7.0±2.34 | 3.1±1.42 |  | 
CC(=O)Oc1ccccc1C(=O)O [aspirin, acetylsalicylic acid] |  |  |  |  |  |  |  |  |  |  |  | 82.3 | 47.4 ± 5.6

From patent US20080027022A1, “METHOD TO TREAT GASTRIC LESIONS” (priority 2006, published 2008)
